Columns and labels:
[1] = tested on: Salmonella; assay: Residual effect: contamination and recontamination with Salmonella after treatment of soybean meal; type: cell-based; conditions: 25° C. - 12% DBM; for Average (n = 3): Salmonella count; for LOG10 (CFU/g): Salmonella
Procedure: (§1) In order to assess the effectiveness of the mix of the invention in the matrix of interest, an appropriate working protocol was prepared. Initially, 500 g of soybean meal were infected with 50 mL of Salmonella solution whose composition was: 10^6 CFUS. typhimurium/mL, 10^6 CFUS. enteritidis /mLand 10^6 CFUS. heidelberg /mL in equal amounts. […] Daily determinations of Salmonella colony forming units were performed on this contaminated meal. To this end, 40.5 g of BPW to 4.5 g of the resulting meal were added and vigorously stirred, and then 100μL of this solution, were plated onto Salmonella-Shigella agar (SS Agar). When microorganisms were used in the protecting mixes, concentrations were carefully balanced, and the amount of bacteria added was always the same.
For this reason it was decided to study the response of meals protected with different solutions, by contaminating them at different times after protection. Given the complexity of the logistics of meal products, they were tested at two different times: initial contamination and recontamination on the first week after treatment; and, contamination on the fourth week with subsequent recontamination on the fifth week after treatment. In all cases, itl was contaminated and recontaminated with Salmonella solutions whose concentration was approximately 10^6 CFU/mL (as previously described).

[2] = tested on: Salmonella (S. typhimurium, S. enteritidis, S. heidelberg); assay: Salmonella elimination in contaminated soybean meal: independent ferments vs. mixes (synergistic effect); type: cell-based; conditions: 25° C. - 12% DBM; for Average (n = 3): Salmonella count; for LOG10 (CFU/g) / Reduction %: Salmonella
Procedure: as §1, with “amounts. […] 50 g of the wet meal obtained (≈25% moisture content on dry basis) were mixed within the dry meal (≈10% moisture content dry basis) and were stirred for 10 minutes.” for “amounts.”
In the cases in which solutions with ferments were used for protection purposes, cell concentration was of about 10^8 CFU/mL.
Using the protocol described above, the effects caused by the individual strains were assessed and then compared with the effect obtained after mixing them together. […] In order to come closer to the actual values, whenever a ND value was obtained using the methodology described above, a new dilution factor was applied; each time by adding only 18 g of buffer (stirring thoroughly and then spinning), and 200 μL of this solution were plated for recounting. […] This new protocol was only used to determine the effect of the different mixes. In turn, the results obtained herein are shown using the following formula: […]
Thus, the percentage of Salmonella elimination in meal was calculated for different mixes, as well as for each ferment individually.

[3] = day 8, after RECONTAMINATION (first week)
[4] = day 9, after RECONTAMINATION (first week)
[5] = day 11, after RECONTAMINATION (first week)
[6] = day 12, after RECONTAMINATION (first week)
[7] = day 13, after RECONTAMINATION (first week)
[8] = day 14, after RECONTAMINATION (first week)
[9] = day 15, after RECONTAMINATION (first week)
[10] = day 37, contamination on the fourth week after treatment
[11] = day 38, after RECONTAMINATION (fifth week)
[12] = day 39, after RECONTAMINATION (fifth week)
[13] = day 41, after RECONTAMINATION (fifth week)
[14] = day 42, after RECONTAMINATION (fifth week)
[15] = day 44, after RECONTAMINATION (fifth week)
[16] = 0 days, first series (0-6 days)
[17] = 0 days, second series (0-3 days)
[18] = 1 day, second series (0-3 days)
[19] = 2 days, first series (0-6 days)
[20] = 2 days, second series (0-3 days)
[21] = 3 days, first series (0-6 days)
[22] = 3 days, second series (0-3 days)
[23] = 4 days, first series (0-6 days)
[24] = 5 days, first series (0-6 days)
[25] = 6 days, first series (0-6 days)

CCC(=O)O [Propionic Acid]
Average (n = 3) ([1]; day 2, initial contamination): 130
Average (n = 3) ([1]; day 3, initial contamination): 100.3
Average (n = 3) ([1]; day 4, initial contamination): 90.5
Average (n = 3) ([1]; day 5, initial contamination): 77
Average (n = 3) ([1]; day 6, initial contamination): 58
Average (n = 3) ([1]; day 7, initial contamination): 32
Average (n = 3) [1, 3]: 215
Average (n = 3) [1, 4]: 189.33
Average (n = 3) ([1]; day 10, after RECONTAMINATION (first week)): 144.33
Average (n = 3) [1, 5]: 109
Average (n = 3) [1, 6]: 96.67
Average (n = 3) [1, 7]: 70.67
Average (n = 3) [1, 8]: 48.67
Average (n = 3) [1, 9]: 40
Average (n = 3) ([1]; day 32, contamination on the fourth week after treatment): 130
Average (n = 3) ([1]; day 33, contamination on the fourth week after treatment): 120.3
Average (n = 3) ([1]; day 34, contamination on the fourth week after treatment): 90.5
Average (n = 3) ([1]; day 35, contamination on the fourth week after treatment): 77
Average (n = 3) ([1]; day 36, contamination on the fourth week after treatment): 58
Average (n = 3) [1, 10]: 39
Average (n = 3) [1, 11]: 247
Average (n = 3) [1, 12]: 189
Average (n = 3) ([1]; day 40, after RECONTAMINATION (fifth week)): 174.34
Average (n = 3) [1, 13]: 156.34
Average (n = 3) [1, 14]: 136.34
Average (n = 3) ([1]; day 43, after RECONTAMINATION (fifth week)): 111.67
Average (n = 3) [1, 15]: 88.34
Average (n = 3) ([1]; day 45, after RECONTAMINATION (fifth week)): 77
LOG10 (CFU/g) [1, 3]: 3.68 LOG10 (CFU/g)
LOG10 (CFU/g) [1, 4]: 3.62 LOG10 (CFU/g)
LOG10 (CFU/g) [1, 5]: 3.38 LOG10 (CFU/g)
LOG10 (CFU/g) [1, 6]: 3.33 LOG10 (CFU/g)
LOG10 (CFU/g) [1, 7]: 3.20 LOG10 (CFU/g)
LOG10 (CFU/g) [1, 8]: 3.03 LOG10 (CFU/g)
LOG10 (CFU/g) [1, 9]: 2.95 LOG10 (CFU/g)
LOG10 (CFU/g) [1, 10]: 2.94 LOG10 (CFU/g)
LOG10 (CFU/g) [1, 11]: 3.74 LOG10 (CFU/g)
LOG10 (CFU/g) [1, 12]: 3.62 LOG10 (CFU/g)
LOG10 (CFU/g) [1, 13]: 3.54 LOG10 (CFU/g)
LOG10 (CFU/g) [1, 14]: 3.48 LOG10 (CFU/g)
LOG10 (CFU/g) [1, 15]: 3.29 LOG10 (CFU/g)
Average (n = 3) [2, 16]: 199.67
Average (n = 3) [2, 17]: 199.67
Average (n = 3) ([2]; 1 day, first series (0-6 days)): 145
Average (n = 3) [2, 18]: 145
Average (n = 3) [2, 19]: 110
Average (n = 3) [2, 20]: 110
Average (n = 3) [2, 21]: 90
Average (n = 3) [2, 22]: 90
Average (n = 3) [2, 23]: 60.67
Average (n = 3) [2, 24]: 57
Average (n = 3) [2, 25]: 38.33
LOG10 (CFU/g) [2, 16]: 3.65 LOG10 (CFU/g)
Reduction % [2, 16]: 0.00%
LOG10 (CFU/g) [2, 17]: 3.65 LOG10 (CFU/g)
Reduction % [2, 17]: 0.00%
LOG10 (CFU/g) ([2]; 1 day, first series (0-6 days)): 3.51 LOG10 (CFU/g)
Reduction % ([2]; 1 day, first series (0-6 days)): 3.81%
LOG10 (CFU/g) [2, 18]: 3.51 LOG10 (CFU/g)
Reduction % [2, 18]: 3.81%
LOG10 (CFU/g) [2, 19]: 3.39 LOG10 (CFU/g)
Reduction % [2, 19]: 7.10%
LOG10 (CFU/g) [2, 20]: 3.39 LOG10 (CFU/g)
Reduction % [2, 20]: 7.10%
LOG10 (CFU/g) [2, 21]: 3.30 LOG10 (CFU/g)
Reduction % [2, 21]: 9.49%
LOG10 (CFU/g) [2, 22]: 3.30 LOG10 (CFU/g)
Reduction % [2, 22]: 9.49%
LOG10 (CFU/g) [2, 23]: 3.13 LOG10 (CFU/g)
Reduction % [2, 23]: 14.22%
LOG10 (CFU/g) [2, 24]: 3.10 LOG10 (CFU/g)
Reduction % [2, 24]: 14.93%
LOG10 (CFU/g) [2, 25]: 2.93 LOG10 (CFU/g)
Reduction % [2, 25]: 19.76%

Reference: patent US20170238571A1, “A SYNERGISTIC COMPOSITION COMPRISING A MIXTURE OF BACTERIA OF THE GENERA LACTOBACILLUS AND PROPIONOBACTERIUM PARTICULARLY USEFUL TO REDUCE OR ELIMINATE PATHOGEN CONTAMINATION IN SOYBEN MEAL AND ITS DERIVATIVES; METHODS AND USES THEREOF” (Molinos Río de la Plata S.A., priority 2014, published 2017)
